{"source": "patent US20080207716A1", "about": "“Formulations and Dosing Regiment for Ppar-Alpha Modulators” (Eli Lilly and Company Patent Division, priority 2005, published 2008)", "type_in_all_cases": "in vivo, human", "key": {"[1]": {"test_system": "healthy obese men and women", "assay": "Meal tolerance test in the single-dose (SDSS) portion of the clinical study", "conditions": "for Triglyceride AUEC(24-37) geometric mean (95% CI): 24-37 h post dose, placebo 44.6", "text": "(§1) A single-blinded, single- (SDSS) and multiple-dose (MDSS), placebo-controlled, dose-escalation study is designed to evaluate the safety, pharmacokinetics, and pharmacodynamics of orally administered study drug in healthy obese men and women. Three different groups of subjects complete a one-step escalation of the study drug dose within Periods 1 and 2 (SDSS). […] The decision to escalate to higher doses is based on the safety assessment of preceding doses. The minimum time between dose escalations within Periods 1 and 2 is one week.\n(§2) Safety is assessed throughout the study by physical examination, adverse event monitoring, electrocardiograms, clinical laboratory tests, and vital sign measurements. Pharmacodynamic evaluation includes a postprandial lipid response during the single-dose safety portion. During the multiple-dose safety study, the pharmacodynamic evaluation includes an oral glucose tolerance test, a fasting lipid panel and a postprandial lipid test. The static lipid panel included triglycerides, total cholesterol, low-density lipoprotein cholesterol [LDL-C], high-density lipoprotein cholesterol [HDL-C], Apoliproteins A1, A2, B, and C3 for cholesterol metabolism. C-reactive protein (CRP) and adiponectin are measured as biomarkers for inflammation and peroxisome proliferated agonist receptor (PPAR) gamma activity, respectively. The dynamic lipid tests include post-prandial measurements of glucose and triglycerides.\nA meal tolerance test (MTT) was performed from 24 to 37 hours after each single dose during the SDSS portion of a clinical trial conducted substantially as described herein by Example 1 using LY518674 as the study drug. The data are analyzed by calculating an area under the concentration-time curve for triglycerides, nonesterified fatty acids and glucose over the postprandial periods from breakfast to lunch (area under the effect curve [AUEC{24-28}]), after lunch (AUEC[28-37]), and the entire test period (AUEC[24-37])."}, "[2]": {"test_system": "healthy obese men and women", "assay": "Safety and tolerability assessment, SDSS clinical study", "conditions": "single oral doses 30 and 60 mg", "procedure": "(§3) A single-blinded, single- (SDSS) and multiple-dose (MDSS), placebo-controlled, dose-escalation study is designed to evaluate the safety, pharmacokinetics, and pharmacodynamics of orally administered study drug in healthy obese men and women. Three different groups of subjects complete a one-step escalation of the study drug dose within Periods 1 and 2 (SDSS). The design includes a total of 6 active doses (0.1, 1, 10, 30, 60, and 100 mg) to be tested. The decision to escalate to higher doses is based on the safety assessment of preceding doses. The minimum time between dose escalations within Periods 1 and 2 is one week.\nas §2, with “The static lipid panel included triglycerides, total cholesterol, low-density lipoprotein cholesterol [LDL-C], high-density lipoprotein cholesterol [HDL-C], Apoliproteins A1, A2, B, and C3 for cholesterol metabolism.” left out, “The dynamic lipid tests include post-prandial measurements of glucose and triglycerides.” left out"}, "[3]": {"assay": "Pharmacokinetics after oral single- and multiple-dose administration", "procedure": "as §3\n(§4) Each of the 3 groups of subjects consist of approximately 9 subjects in a 2:1 ratio of active treatment to placebo, where the order of placebo administration is randomized across both the SDSS and MDSS portions of the study. All 3 groups of subjects shall be scheduled to participate in both SDSS and MDSS portions. However, the SDSS portion is completed and analyzed several months prior to beginning the MDSS (Period 3/4). The 45-day MDSS portion of the original study is designed to test 4 active doses (0.025, 0.1, 1 and 10 mg) administered daily for the first 14 days of the study. The MDSS portion recruits subjects to form 4 groups of subjects. Approximately 36 subjects (9 per dose group) are enrolled into the MDSS portion of the study.\nThe median time at maximal concentration (tmax) was approximately 0.5 to 1 hour. The exposure appeared dose-proportional within the studied range."}, "[4]": {"test_system": "healthy obese men and women", "assay": "Lipid pharmacodynamics (LDL-C, ApoB, ApoC), SDSS clinical study", "text": "as §1\nas §2, with “The dynamic lipid tests include post-prandial measurements of glucose and triglycerides.” left out"}, "healthy obese subjects": {"test_system": "healthy obese subjects", "assay": "Fasting lipid panel, MDSS clinical study (14 days daily dosing, 30 day follow up)", "text": "FIG. 1. FIG. 1 illustrates the time profile of percentage change from baseline for LDL-C following the administration of daily oral doses of LY518674 over 14 days and 30 day follow up afterwards, in healthy obese subjects in MDSS of a study conducted substantially as described by Example 1.\nas §4, §2"}}, "data": [{"smiles": "Cc1ccc(Cn2nc(CCCc3ccc(OC(C)(C)C(=O)O)cc3)[nH]c2=O)cc1", "note": "[LY518674, Propanoic Acid, 2-[4-[3-[2,5-dihydro-1-[(4-methylphenyl)methyl]-5-oxo-1H-1,2,4-triazol-3-yl]propyl]phenoxy]-2-methyl-]", "values": [{"measurement": "Lowest dose providing a pharmaceutically desirable effect", "setting": "[1]; single dose study", "result": 100, "unit": "µg"}, {"measurement": "Effect on triglyceride (TG) AUEC", "setting": "[1]; single dose, meal tolerance test 24 to 37 hours post dose", "result": "rapid and profound reduction"}, {"measurement": "Dose at which maximum TG AUEC reduction is approached", "setting": "[1]; single oral dose", "result": "approximately 1 mg"}, {"measurement": "Triglyceride AUEC(24-37) geometric mean (95% CI)", "setting": "[1]; single oral dose 0.01 mg", "result": "37.8 (31.2, 45.8) mmol · hr/L"}, {"measurement": "Triglyceride AUEC(24-37) ratio of geometric means, dose vs. placebo (95% CI)", "setting": "[1]; single oral dose 0.01 mg, p 0.083", "result": "0.85 (0.70, 1.02) [0.083]"}, {"measurement": "Triglyceride AUEC(24-37) geometric mean (95% CI)", "setting": "[1]; single oral dose 0.1 mg", "result": "27.6 (23.0, 33.2) mmol · hr/L"}, {"measurement": "Triglyceride AUEC(24-37) ratio of geometric means, dose vs. placebo (95% CI)", "setting": "[1]; single oral dose 0.1 mg, p <.001", "result": "0.62 (0.52, 0.74) [<.001*]"}, {"measurement": "Triglyceride AUEC(24-37) geometric mean (95% CI)", "setting": "[1]; single oral dose 1 mg", "result": "23.9 (20.0, 28.6) mmol · hr/L"}, {"measurement": "Triglyceride AUEC(24-37) ratio of geometric means, dose vs. placebo (95% CI)", "setting": "[1]; single oral dose 1 mg, p <.001", "result": "0.54 (0.45, 0.64) [<.001*]"}, {"measurement": "Triglyceride AUEC(24-37) geometric mean (95% CI)", "setting": "[1]; single oral dose 10 mg", "result": "24.3 (20.1, 29.5) mmol · hr/L"}, {"measurement": "Triglyceride AUEC(24-37) ratio of geometric means, dose vs. placebo (95% CI)", "setting": "[1]; single oral dose 10 mg, p <.001", "result": "0.55 (0.45, 0.67) [<.001*]"}, {"measurement": "Triglyceride AUEC(24-37) geometric mean (95% CI)", "setting": "[1]; single oral dose 30 mg", "result": "20.0 (16.3, 24.5) mmol · hr/L"}, {"measurement": "Triglyceride AUEC(24-37) ratio of geometric means, dose vs. placebo (95% CI)", "setting": "[1]; single oral dose 30 mg, p <.001", "result": "0.45 (0.37, 0.54) [<.001*]"}, {"measurement": "Triglyceride AUEC(24-37) geometric mean (95% CI)", "setting": "[1]; single oral dose 60 mg", "result": "25.2 (20.6, 30.7) mmol · hr/L"}, {"measurement": "Triglyceride AUEC(24-37) ratio of geometric means, dose vs. placebo (95% CI)", "setting": "[1]; single oral dose 60 mg, p <.001", "result": "0.56 (0.46, 0.69) [<.001*]"}, {"measurement": "Tolerability finding prohibiting administration of higher doses", "setting": "[2]", "result": "Gastrointestinal intolerance"}, {"measurement": "half-life", "setting": "[3]; both sexes, human, in vivo, oral, as stated in MDSS results", "result": "~10", "unit": "h"}, {"measurement": "half-life", "setting": "[3]; both sexes, human, in vivo, oral, as stated in SDSS/PK results", "result": "< 10", "unit": "h"}, {"measurement": "Tmax", "setting": "[3]; both sexes, human, in vivo, oral, healthy obese subjects, read-out: Median time at maximal concentration (tmax)", "result": "0.5 to 1", "unit": "h"}, {"measurement": "Time to steady-state exposure", "setting": "[3]; daily oral dosing", "result": "≤ 2", "unit": "days"}, {"measurement": "Mean accumulation ratio", "setting": "[3]; daily oral dosing, steady state", "result": "no more than 1.35"}, {"measurement": "Absorption after oral administration", "setting": "[3]; healthy obese subjects", "result": "rapidly absorbed"}, {"measurement": "Pharmacokinetics following single- versus multiple-dose administration", "setting": "[3]; in vivo", "result": "No differences"}, {"measurement": "Exposure versus dose", "setting": "[3]; within the studied dose range", "result": "dose-proportional"}, {"measurement": "ApoB and ApoC change", "setting": "[4]; SDSS, oral", "result": "decreased in a fashion similar to that seen for LDL-C changes"}, {"measurement": "LDL-C change", "setting": "[4]; single oral dose 0.01 mg", "result": "LDL-C reduction consistent with the reduction observed at the higher doses"}, {"measurement": "Lowest dose providing a pharmaceutically desirable effect", "setting": "healthy obese subjects; MDSS study", "result": 25, "unit": "µg"}, {"measurement": "Maintenance of pharmacological effect after dosing stopped", "setting": "healthy obese subjects; after 14 days daily dosing", "result": "~14", "unit": "days"}, {"measurement": "Time for all parameters to return to baseline after cessation of dosing", "setting": "healthy obese subjects; after 14 days daily dosing", "result": "≤ 2", "unit": "weeks"}, {"measurement": "LDL-C change", "setting": "healthy obese subjects; daily oral doses 0.025, 0.1, 1 and 10 mg for 14 days, all doses similar magnitude", "result": "dramatically reduced"}]}]}
